According to patent US20210261621A1, “Preparation of Dilipid Polymixins and Use Thereof as Antimicrobial Adjuvants” (priority 2018, published 2021):
Positions of bridges follow the written chain, without caps; N, C: chain ends. Non-standard residues stand in square brackets, D forms with d. Residues, ends and D or L forms follow the SMILES beside them. *: point of attachment. Acetyl(1-adamantyl) = O=C(CC12CC3CC(CC(C3)C1)C2)*; Benzoyl(4-Ph) = O=C(c1ccc(-c2ccccc2)cc1)*; Dab = NCC[C@H](N)C(=O)O

Assays:
[1] = test system: MSSE CANWARD-2008 81388; type: cell-based, Staphylococcus epidermidis; settings: for MIC: MSSE CANWARD-2008 81388 (methicillin-susceptible Staphylococcus epidermidis)
Source text: (§1) Bacterial strains were either obtained from the American Type Culture Collection (ATCC), Canadian National Intensive Care Unit (CAN-ICU) surveillance study or the Canadian Ward Surveillance (CANWARD) study. Strains from both CAN-ICU and CANWARD are isolates recovered from patients diagnosed with a presumed infectious disease that were admitted in a participating medical center across Canada. Efflux-deficient strain PAO200 (lacking MexAB-OprM efflux system) and PA0750 (lacking MexAB-OprM, MexCD-OprJ, MexEF-OprN, MexJK and MexXY efflux systems, and the outer membrane protein OpmH) were kindly gifted by Dr. Ayush Kumar (University of Manitoba).
(§2) The in vitro antibacterial activity of the compounds studied were assessed by broth microdilution susceptibility testing following CLSI guidelines. Bacterial cultures were grown overnight prior to the assay. The overnight grown cultures were diluted in saline to 0.5 McFarland turbidity, followed by 1:50 dilution in Mueller-Hinton broth (MHB) for inoculation to a final concentration of approximately 5×10^5 colony forming units/mL. Testing was performed on 96-well plates where the tested compounds were 2-fold serially diluted in MHB and incubated with equal volumes of bacterial inoculum at 37° C. for 18 h. […] Wells containing MHB with or without bacterial cells were used as positive or negative control, respectively.

[2] = test system: MRSE CAN-ICU 61589; type: cell-based, S. epidermidis; settings: MRSE CAN-ICU 61589 (methicillin-resistant S. epidermidis)
Source text: as §1, §2

[3] = test system: E. faecalis ATCC 29212; type: cell-based; settings: E. faecalis ATCC 29212
Source text: as §1, §2

[4] = test system: E. faecium ATCC 27270; type: cell-based; settings: E. faecium ATCC 27270
Source text: as §1, §2

[5] = test system: S. pneumoniae ATCC 49619; type: cell-based; settings: S. pneumoniae ATCC 49619
Source text: as §1, §2

[6] = test system: P. aeruginosa ATCC 27853; type: cell-based, Pseudomonas aeruginosa; settings: P. aeruginosa ATCC 27853
Source text: as §1, §2

[7] = test system: P. aeruginosa CAN-ICU 62308; type: cell-based, Pseudomonas aeruginosa; settings: P. aeruginosa CAN-ICU 62308
Source text: as §1, §2

[8] = test system: P. aeruginosa PA095; type: cell-based, Pseudomonas aeruginosa; settings: P. aeruginosa PA095
Source text: as §1, §2

[9] = test system: P. aeruginosa PA100036; type: cell-based, Pseudomonas aeruginosa; settings: P. aeruginosa PA100036
Source text: as §1, §2

[10] = test system: P. aeruginosa PA101885; type: cell-based, Pseudomonas aeruginosa; settings: P. aeruginosa PA101885
Source text: as §1, §2

[11] = test system: P. aeruginosa PA259-96918; type: cell-based, Pseudomonas aeruginosa; settings: P. aeruginosa PA259-96918
Source text: as §1, §2

[12] = test system: P. aeruginosa PA260-97103; type: cell-based, Pseudomonas aeruginosa; settings: P. aeruginosa PA260-97103
Source text: as §1, §2

[13] = test system: P. aeruginosa PA264-104354; type: cell-based, Pseudomonas aeruginosa; settings: P. aeruginosa PA264-104354
Source text: as §1, §2

[14] = test system: P. aeruginosa PAO1; type: cell-based, Pseudomonas aeruginosa; settings: P. aeruginosa PAO1 (wild type)
Source text: as §1, §2

[15] = test system: S. maltophilia CAN-ICU 62584; type: cell-based, Stenotrophomonas maltophilia; settings: S. maltophilia CAN-ICU 62584
Source text: as §1, §2

[16] = test system: A. baumannii 110193; type: cell-based, Acinetobacter baumannii; settings: A. baumannii 110193
Source text: as §1, §2

[17] = test system: A. baumannii AB027; type: cell-based, Acinetobacter baumannii; settings: A. baumannii AB027
Source text: as §1, §2

[18] = test system: A. baumannii AB031; type: cell-based, Acinetobacter baumannii; settings: A. baumannii AB031
Source text: as §1, §2

[19] = test system: A. baumannii ATCC 17978; type: cell-based, Acinetobacter baumannii; settings: A. baumannii ATCC 17978
Source text: as §1, §2

[20] = test system: A. baumannii CAN-ICU 63169; type: cell-based, Acinetobacter baumannii; settings: A. baumannii CAN-ICU 63169
Source text: as §1, §2

[21] = test system: A. baumannii LAC-4; type: cell-based, Acinetobacter baumannii; settings: A. baumannii LAC-4
Source text: as §1, §2

[22] = test system: K. pneumoniae 116381; type: cell-based, Klebsiella pneumoniae; settings: K. pneumoniae 116381
Source text: as §1, §2

[23] = test system: K. pneumoniae ATCC 13883; type: cell-based, Klebsiella pneumoniae; settings: K. pneumoniae ATCC 13883
Source text: as §1, §2

[24] = test system: E. cloacae 117029; type: cell-based, Enterobacter cloacae; settings: E. cloacae 117029
Source text: as §1, §2

[25] = test system: P. aeruginosa PAO200; settings: P. aeruginosa PAO200, efflux-deficient strain that lacks the MexAB-OprM pump
Source text: (§3) To our curiosity, we explored whether efflux can affect the activity of polymyxins. It is widely accepted that polymyxins disrupt Gram-negative bacterial membranes that result to intracellular component leakage and bacterial cell death. However, for this to occur requires the agent to reach the periplasmic space to interact and disrupt the inner membrane. Active efflux may potentially expel polymyxins out of the periplasm, effectively reducing its periplasmic and intracellular concentrations. To study the effect of efflux on polymyxins in Gram-negative pathogens, we used P. aeruginosa as they inherently overexpress efflux systems such as MexAB-OprM, MexCD-OprJ and MexXY-OprM. Moreover, antibiotic substrates for these efflux systems are mostly characterized. We evaluated and compared the activity of the dilipid polymyxins, colistin and PMBN against wild-type PAO1 and two efflux-deficient P. aeruginosa isogenic mutants (Table 5). The strain PAO200 lacks the MexAB-OprM efflux system while strain PAO750 lacks five clinically-relevant pumps (MexAB-OprM, MexCD-OprJ, MexEF-OprN, MexJK and MexXY) and outer membrane protein OpmH.
as §1, §2

[26] = test system: P. aeruginosa PAO750; settings: P. aeruginosa PAO750, efflux-deficient strain that lacks five pumps and OpmH
Source text: as §3, §1, §2

CC(C)C[C@@H]1NC(=O)[C@@H](Cc2ccccc2)NC(=O)[C@H](CCN)NC(=O)[C@@H](NC(=O)[C@H](CCN)NC(=O)[C@@H](NC(=O)[C@H](CCNC(=O)c2ccc(-c3ccccc3)cc2)NC(=O)c2ccc(-c3ccccc3)cc2)[C@@H](C)O)CCNC(=O)[C@H]([C@@H](C)O)NC(=O)[C@H](CCN)NC(=O)[C@H](CCN)NC1=O [Compound 5, Dibiphenyl-4-Carboxylic Acid (Di-Biphenyl) Polymyxin] ({Benzoyl(4-Ph)}-[Dab](Benzoyl(4-Ph))T[Dab][Dab][Dab][dF]L[Dab][Dab]T; lactam 4-C)
64 µg/mL: MIC [15] | MIC [20]
32 fold: fold better MIC than colistin ([1]; methicillin-susceptible Staphylococcus epidermidis)
6 µg/mL: MIC [17]
32 µg/mL: MIC [5] | MIC [6]
16 µg/mL: MIC [3] | MIC [7] | MIC [16] | MIC [19] | MIC [21]
4 µg/mL: MIC [8] | MIC [25] | MIC [26]
>128 µg/mL: MIC [22] | MIC [23]
8 µg/mL: MIC [1] | MIC [2] | MIC [4] | MIC [9] | MIC [10] | MIC [11] | MIC [12] | MIC [13] | MIC [14] | MIC [18] | MIC [24]

CC(C)C[C@@H]1NC(=O)[C@@H](Cc2ccccc2)NC(=O)[C@H](CCN)NC(=O)[C@@H](NC(=O)[C@H](CCN)NC(=O)[C@@H](NC(=O)[C@H](CCNC(=O)CC23CC4CC(CC(C4)C2)C3)NC(=O)CC23CC4CC(CC(C4)C2)C3)[C@@H](C)O)CCNC(=O)[C@H]([C@@H](C)O)NC(=O)[C@H](CCN)NC(=O)[C@H](CCN)NC1=O [Compound 4, Diadamantane Acetic Acid (Di-Adamantyl) Polymyxin] ({Acetyl(1-adamantyl)}-[Dab](Acetyl(1-adamantyl))T[Dab][Dab][Dab][dF]L[Dab][Dab]T; lactam 4-C)
128 µg/mL: MIC [20]
4 µg/mL: MIC [8] | MIC [12] | MIC [14] | MIC [24] | MIC [25]
32 µg/mL: MIC [3] | MIC [5] | MIC [16] | MIC [19]
64 µg/mL: MIC [15] | MIC [17]
8 µg/mL: MIC [9] | MIC [10] | MIC [11] | MIC [13] | MIC [26]
>128 µg/mL: MIC [22] | MIC [23]
16 µg/mL: MIC [1] | MIC [2] | MIC [4] | MIC [6] | MIC [7] | MIC [18] | MIC [21]
